# “Also recorded” adds a separate entry of the source.
# Experiments:
# ZDF rat = experiment: oGTT in ZDF rat; assay type: in vivo; settings: 3 mg/kg
# dog = settings: 7-day
# T2DM patients = settings: cited from earlier work
# healthy male volunteers = settings: cited from earlier work
# rat = settings: 14-day
# [1] = stability in rat liver microsomes; assay type: in vitro ADME
# [2] = system: Male C57BL/6 mice fed high fat diet; experiment: High Fat Diet (HFD) mouse model of non-alcoholic fatty liver disease; assay type: in vivo; settings: five times per week for six weeks
# Source text: Male C57BL/6 mice (8 weeks) were fed either normal or high fat diet (HFD) (60% TD06414, Envigo) and given water ad libitum. […] At 20 weeks, mice were sacrificed and serum plasma was collected for measurement of various biochemical parameters, including serum transaminases.
# hERG channel = hERG channel (Homo sapiens, UniProt Q12809); experiment: hERG patch clamp study; assay type: cell-based
# [3] = oral pharmacokinetics in monkey; assay type: in vivo; settings: Male cynomolgus monkey, 10 mg/kg, 100% PEG400
# Sprague-Dawley rat = experiment: oral glucose tolerance test (oGTT) in Sprague-Dawley rat; assay type: in vivo
# Experimental: (§1) Animals were grouped in regular cages (rats 2/cage, mice 4/cage) with bedding under normal light conditions (lights on 6:30 am-6:30 pm). They were given ad libitum access to food and water. Animals were allowed to acclimate to the facility for several days before handling.
# Rat: Animals are fasted 3-16 h.
# The oral glucose tolerance test (OGTT) was executed as follows: At time minus 30 min, blood was collected via a tail nick and a glucose test performed with a hand-held glucometer, and compound was then administered. At time 0, blood was again collected for glucose reading and then a bolus of glucose (3 g/kg p.o., 6 mL/kg) administered. Blood glucose levels were further tested at 30, 60, and 120 min post glucose administration. During the entire oGTT, a total volume of approximately 8 drops of blood was collected. Rats were used twice with a one week lapse between experiments.
# [4] = oral pharmacokinetics in dog; assay type: in vivo; settings: Male beagle dog, 7.85 mg/kg, 100% PEG400
# [5] = oral pharmacokinetics in rat; assay type: in vivo; settings: Male Sprague-Dawley rat, 10 mg/kg, 40% HPβCD
# [6] = stability in human liver microsomes; assay type: in vitro ADME
# male C57bl/6j mice = experiment: oral glucose tolerance test (oGTT) in normal lean mice; assay type: in vivo, mouse; settings: 1 mg/kg and 10 mg/kg p.o.
# Experimental: as §1
# Mouse: Following 2 handling sessions, animals were fasted for 3-16 h.
# The oral glucose tolerance test (oGTT) was executed as follows: Compound was administered 0-30 min prior to first blood sample. At time 0, a tail nick and glucose test was performed with a hand-held glucometer, then a bolus of glucose ([…], p.o.) was administered. Glucose was again tested at 20, 40, 60, and 120 minutes post glucose administration. During the entire oGTT, a total volume of approximately 10 drops of blood was collected.
# Cynomolgus monkey = experiment: oGTT in normal cynomolgus monkey; assay type: in vivo; settings: 3 mg/kg
# anesthetized Guinea Pig = experiment: cardiovascular effects in the anesthetized Guinea Pig; assay type: in vivo; settings: cumulative doses up to 5 mg/kg i.v., compared to vehicle controls
# [7] = oral pharmacokinetics in mouse; assay type: in vivo, Male C57B1 mouse
# Caco-2 monolayers = experiment: permeability across Caco-2 monolayers; assay type: in vitro ADME
# ob/ob Mice = experiment: oGTT in ob/ob mice; assay type: in vivo, mouse; settings: 3 mg/kg
# mice fed a high-fat diet = settings: cited from earlier work
# [8] = 100 or 500 mg single-dose or 500 mg once daily for 14 days
# [9] = multiple dosing, compared to baseline
# [10] = healthy male volunteers, 2.5-800 mg
# [11] = oral single-dose, compared with placebo
# [12] = Sprague-Dawley rat, 3-30 mg/kg PO
# [13] = Male C57B1 mouse, 10 mg/kg, 40% HPβCD
# [14] = oral administration, mice fed a high-fat diet
# Chain of hERG channel (Q12809 whole entry): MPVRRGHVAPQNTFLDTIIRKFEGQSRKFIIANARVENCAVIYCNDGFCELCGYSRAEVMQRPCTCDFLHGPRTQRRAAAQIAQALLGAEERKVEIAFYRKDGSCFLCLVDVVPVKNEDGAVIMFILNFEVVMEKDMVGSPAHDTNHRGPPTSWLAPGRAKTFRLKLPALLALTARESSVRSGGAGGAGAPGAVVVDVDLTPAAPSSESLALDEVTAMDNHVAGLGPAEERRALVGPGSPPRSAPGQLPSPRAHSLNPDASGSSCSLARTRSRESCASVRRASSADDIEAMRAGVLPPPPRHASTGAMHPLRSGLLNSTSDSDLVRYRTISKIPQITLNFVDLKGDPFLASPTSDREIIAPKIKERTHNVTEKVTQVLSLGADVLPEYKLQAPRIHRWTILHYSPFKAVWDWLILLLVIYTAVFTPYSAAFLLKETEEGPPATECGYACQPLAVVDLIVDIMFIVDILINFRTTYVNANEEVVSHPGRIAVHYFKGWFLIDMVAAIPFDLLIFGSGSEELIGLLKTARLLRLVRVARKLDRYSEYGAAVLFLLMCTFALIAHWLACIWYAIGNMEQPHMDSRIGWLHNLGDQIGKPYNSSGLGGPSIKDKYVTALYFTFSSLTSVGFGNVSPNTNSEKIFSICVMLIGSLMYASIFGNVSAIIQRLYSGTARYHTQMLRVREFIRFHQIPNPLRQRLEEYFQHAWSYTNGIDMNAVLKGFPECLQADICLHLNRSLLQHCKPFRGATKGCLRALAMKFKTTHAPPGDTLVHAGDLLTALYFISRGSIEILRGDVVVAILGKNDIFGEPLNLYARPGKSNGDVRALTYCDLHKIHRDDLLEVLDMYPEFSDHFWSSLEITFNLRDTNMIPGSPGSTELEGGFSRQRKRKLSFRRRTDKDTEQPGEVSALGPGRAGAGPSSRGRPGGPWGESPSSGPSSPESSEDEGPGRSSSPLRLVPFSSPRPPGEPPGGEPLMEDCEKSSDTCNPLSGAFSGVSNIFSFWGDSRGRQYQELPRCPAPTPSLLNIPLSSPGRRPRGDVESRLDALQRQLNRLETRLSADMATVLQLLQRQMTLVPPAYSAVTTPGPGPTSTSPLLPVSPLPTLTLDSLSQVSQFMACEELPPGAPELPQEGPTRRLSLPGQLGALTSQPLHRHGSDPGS
compound,measurement,setting,value
"COc1c(Nc2ccc(S(C)(=O)=O)nc2C)ncnc1OC1CCN(C(=O)OC(C)C)CC1 [Compound 1, 4-[6-(6-Methanesulfonyl-2-methyl-pyridin-3-ylamino)-5-methoxy-pyrimidin-4-yloxy]-piperidine-1-carboxylic acid isopropyl ester]",Compd exposure upon oGTT,ZDF rat,1592 ± 128 ng/mL
same,Blood glucose AUC (% of vehicle group),ZDF rat; oGTT,72.8 ± 6.3 % of vehicle group
same,preliminary safety findings,dog,no obvious liabilities
same,hypoglycemia,T2DM patients; [8],not associated with hypoglycemia
same,tolerability,T2DM patients; [8],well tolerated
same,plasma systemic exposure versus dose,T2DM patients,increased with increased dose
same,post-meal gastric insulinotropic peptide concentration,T2DM patients; [9],increased
same,post-meal total glucagon-like peptide 1 concentration,T2DM patients; [9],increased
same,time to attain steady-state,T2DM patients; multiple-dose administration,approximately 8 days
same,plasma systemic exposure after multiple-dose administration,T2DM patients; multiple-dose versus single-dose,approximately two-fold greater
same,glucose excursion during an oral glucose tolerance test,"T2DM patients; single-dose, compared with placebo",decreased
same,hypoglycemia,healthy male volunteers; [10],not associated with hypoglycemia
same,systemic exposure in plasma versus dose,healthy male volunteers; [10],increased in proportion to the dose
same,tolerability,healthy male volunteers; [10],well tolerated
same,influence of food on systemic exposure in plasma,"healthy male volunteers; healthy male volunteers, coadministration of food",not influenced by coadministration of food
same,terminal elimination half-life,"healthy male volunteers; healthy male volunteers, oral suspension formulation",~13 h
same,glucose excursion,healthy male volunteers; [11],did not significantly decrease
same,insulin secretion,healthy male volunteers; [11],did not significantly decrease glucose excursion or increase insulin secretion
same,postmeal plasma glucagon-like peptide 1 (GLP-1) concentration,healthy male volunteers; [11],increased
same,postmeal plasma glucose-dependent insulinotropic peptide (GIP) concentration,healthy male volunteers; [11],increased
same,postmeal plasma peptide YY (PYY) concentration,healthy male volunteers; [11],increased
same,preliminary safety findings,rat,no obvious liabilities
same,t1/2 in liver microsomes,[1],> 1 h
same,increases in serum ALT caused by high fat diet,"[2]; HFD mice, 3, 10 and 30 mg/kg/day",blocked
same,IC50,hERG channel,13 ± 0.2 µM
same,% F,[3],68.8%
same,AUCinf,[3],64180 ng·h/mL
same,Cmax,[3],4803 ng/mL
same,tmax,[3],6 h
same,Compd exposure upon oGTT,"Sprague-Dawley rat; SD rats, 3 mg/kg",482 ± 116 ng/mL
same,Blood glucose AUC (% of vehicle group),"Sprague-Dawley rat; SD rats, 3 mg/kg, oGTT",85.1 ± 1.9 % of vehicle group
same,AUCglu during oGTT,Sprague-Dawley rat; [12],markedly reduced; also recorded: significant main effect
same,glucose handling,Sprague-Dawley rat; [12],significantly improved
same,% F,[4],22.1%
same,AUCinf,[4],43743 ng·h/mL
same,Cmax,[4],1983 ng/mL
same,tmax,[4],8 h
same,% F,[5],72%
same,AUCinf,[5],12471 ng·h/mL
same,Cmax,[5],1390 ng/mL
same,tmax,[5],1 h
same,t1/2 in liver microsomes,[6],> 1 h
same,AUCglu during oGTT,male C57bl/6j mice,significant reduction; also recorded: significant main effect
same,Compd exposure upon oGTT,Cynomolgus monkey,112 ± 16.9 ng/mL
same,Blood glucose AUC (% of vehicle group),Cynomolgus monkey; oGTT,82.8 ± 1.7 % of vehicle group
same,"effects on mean arterial blood pressure (MAP), heart rate (HR) or electrocardiogram (ECG)",anesthetized Guinea Pig,"did not produce any dose-related, statistically significant effects"
same,AUCinf,[7]; [13],319953 ng·h/mL
same,Cmax,[7]; [13],25833 ng/mL
same,tmax,[7]; [13],2 h
same,exposure after oral dosing,[7]; mouse,high
same,"permeability across Caco-2 monolayers, A to B",Caco-2 monolayers; A to B,26 ×10⁻⁶ cm/s
same,"permeability across Caco-2 monolayers, B to A",Caco-2 monolayers; B to A,15 ×10⁻⁶ cm/s
same,Blood glucose AUC (% of vehicle group),ob/ob Mice,78.4 ± 5.1 % of vehicle group
CCc1cnc(N2CCC(c3nc(COc4ccc(-n5cnnn5)cc4)cs3)CC2)nc1 [MBX-2982],increases in serum ALT caused by high fat diet,"[2]; HFD mice, 10 mg/kg/day","blocked by treatment with Compound 1, but not MBX-2982"
same,hepatic antilipogenesis effects in GPR119 KO mice,mice fed a high-fat diet; GPR119 KO mice,abolished
same,expression levels of SREBP-1 and lipogenesis-related genes,mice fed a high-fat diet; [14],potently inhibited
same,hepatic lipid accumulation,mice fed a high-fat diet; [14],potently inhibited

# Source: patent US20200129511A1, “COMPOUNDS AND METHODS FOR TREATMENT OF NAFLD AND NASH” (Arena Pharmaceuticals, Inc., priority 2017, published 2020)
